Data taken from ChEMBL document CHEMBL4813917, “2-((1-Phenyl-1H-1,2,3-triazol-4-yl)methyl)-2-azabicyclo[3.2.1]octan-3-one derivatives: Simplification and modification of aconitine scaffold for the discovery of novel anticancer agents” (Eur J Med Chem, 2021).
The source made the active and inactive calls. The calls are words filed in the database; no cut-off is given here.

Columns and labels:
LoVo [1] = assay: Induction of apoptosis in human LoVo cells assessed as early apoptotic cells at 80 nM measured after 24 hrs by Annexin V/PI staining based flow cytometry method (reference value: 1.6%); assay type: functional
PANC-1 = assay: Antiproliferative activity against human PANC-1 cells assessed as inhibition of cell proliferation measured after 24 hrs by MTT assay; assay type: functional, cell-based; conditions: PANC-1, 24 h
SW-620 [2] = assay: Induction of apoptosis in human SW-620 cells assessed as increase in Bax levels at 20 to 80 nM measured after 24 hrs by Western blot assay; assay type: functional, cell-based; conditions: dose 20-80 nM
LoVo [3] = assay: Induction of apoptosis in human LoVo cells assessed as viable cells at 40 nM measured after 24 hrs by Annexin V/PI staining based flow cytometry method (reference value: 93.5%); assay type: functional; conditions: read-out: Activity
[4] = Cytotoxicity against human IOSE80 cells assessed as reduction in cell viability measured after 24 hrs by MTT assay; assay type: cell-based
SW-620 [5] = assay: Induction of apoptosis in human SW-620 cells assessed as early apoptotic cells at 80 nM measured after 24 hrs by Annexin V/PI staining based flow cytometry method (reference value: 1.7%); assay type: functional
SW-620 [6] = assay: Induction of apoptosis in human SW-620 cells assessed as early apoptotic cells at 20 nM measured after 24 hrs by Annexin V/PI staining based flow cytometry method (reference value: 1.7%); assay type: functional
SW-620 [7] = assay: Induction of apoptosis in human SW-620 cells assessed as increase in cleaved caspase-3 levels at 20 to 80 nM measured after 24 hrs by Western blot assay; assay type: functional, cell-based; conditions: dose 20-80 nM
LoVo [8] = assay: Induction of apoptosis in human LoVo cells assessed as increase in cleaved caspase-3 levels at 20 to 80 nM measured after 24 hrs by Western blot assay; assay type: functional, cell-based; conditions: dose 20-80 nM
SW-620 [9] = assay: Antitumour activity against human SW-620 cells xenografted in Balb/c mouse assessed as decrease in Ki67 expression in tumour at 5 mg/kg, ip measured after 21 days immunochemical staining method; assay type: functional, organism-based; conditions: time 21.0 day
LoVo [10] = assay: Cell cycle arrest in human LoVo cells assessed as decrease of cells in G2/M phase at 20 to 80 nM measured after 24 hrs by PI staining based flow cytometry method; assay type: functional; conditions: dose 20-80 nM
SW-620 [11] = assay: Induction of apoptosis in human SW-620 cells assessed as early apoptotic cells at 40 nM measured after 24 hrs by Annexin V/PI staining based flow cytometry method (reference value: 1.7%); assay type: functional
[12] = Cytotoxicity against human HPDE6c7 cells assessed as reduction in cell viability measured after 24 hrs by MTT assay; assay type: functional
HepG2 = assay: Antiproliferative activity against human HepG2 cells assessed as inhibition of cell proliferation measured after 24 hrs by MTT assay; assay type: functional, cell-based; conditions: HepG2, 24 h
SW-620 [13] = assay: Induction of apoptosis in human SW-620 cells assessed as necrotic cells at 80 nM measured after 24 hrs by Annexin V/PI staining based flow cytometry method (reference value: 3%); assay type: functional
LoVo [14] = assay: Induction of apoptosis in human LoVo cells assessed as late apoptotic cells at 40 nM measured after 24 hrs by Annexin V/PI staining based flow cytometry method (reference value: 1.6%); assay type: functional
LoVo [15] = assay: Induction of apoptosis in human LoVo cells assessed as increase in Bax levels at 20 to 80 nM measured after 24 hrs by Western blot assay; assay type: functional, cell-based; conditions: dose 20-80 nM
SW-620 [16] = assay: Induction of apoptosis in human SW-620 cells assessed as late apoptotic cells at 40 nM measured after 24 hrs by Annexin V/PI staining based flow cytometry method (reference value: 1.3%); assay type: functional
LoVo [17] = assay: Induction of apoptosis in human LoVo cells assessed as late apoptotic cells at 80 nM measured after 24 hrs by Annexin V/PI staining based flow cytometry method (reference value: 1.6%); assay type: functional
[18] = Cytotoxicity against human MRC5 cells assessed as reduction in cell viability measured after 24 hrs by MTT assay; assay type: cell-based
LoVo [19] = assay: Induction of apoptosis in human LoVo cells assessed as late apoptotic cells at 20 nM measured after 24 hrs by Annexin V/PI staining based flow cytometry method (reference value: 1.6%); assay type: functional
SW-620 [20] = assay: Antitumour activity against human SW-620 cells xenografted in Balb/c mouse assessed as inhibition of tumour growth at 5 mg/kg, ip measured after 21 days; assay type: functional; conditions: SW-620, ip, 504 h, time 21 day, read-out: TGI
[21] = Cytotoxicity against human GES1 cells assessed as reduction in cell viability measured after 24 hrs by MTT assay; assay type: cell-based
SW-620 [22] = assay: Induction of apoptosis in human SW-620 cells assessed as late apoptotic cells at 20 nM measured after 24 hrs by Annexin V/PI staining based flow cytometry method (reference value: 1.3%); assay type: functional
[23] = Toxicity in Balb/c mouse xenografted with human SW-620 cells assessed as changes in body weight at 5 mg/kg, ip measured after 21 days; assay type: organism-based; conditions: in vivo, 504 h, time 21 day
SW-620 [24] = assay: Induction of apoptosis in human SW-620 cells assessed as necrotic cells at 40 nM measured after 24 hrs by Annexin V/PI staining based flow cytometry method (reference value: 3%); assay type: functional
SW-620 [25] = assay: Induction of apoptosis in human SW-620 cells assessed as viable cells at 80 nM measured after 24 hrs by Annexin V/PI staining based flow cytometry method (reference value: 94%); assay type: functional; conditions: read-out: Activity
LoVo [26] = assay: Inhibition of cell migration in human LoVo cells at 20 to 80 nM measured after 24 hrs by wound healing assay; assay type: functional, cell-based; conditions: dose 20-80 nM
SW-620 [27] = assay: Cell cycle arrest in human SW-620 cells assessed as accumulation of cells in G0/G1 phase at 20 to 80 nM measured after 24 hrs by PI staining based flow cytometry method; assay type: functional; conditions: dose 20-80 nM
SW-620 [28] = assay: Cell cycle arrest in human SW-620 cells assessed as decrease of cells in G2/M phase at 20 to 80 nM measured after 24 hrs by PI staining based flow cytometry method; assay type: functional; conditions: dose 20-80 nM
LoVo [29] = assay: Induction of apoptosis in human LoVo cells assessed as viable cells at 20 nM measured after 24 hrs by Annexin V/PI staining based flow cytometry method (reference value: 93.5%); assay type: functional; conditions: read-out: Activity
LoVo [30] = assay: Antiproliferative activity against human LoVo cells assessed as inhibition of cell proliferation measured after 24 hrs by MTT assay; assay type: functional, cell-based
SW-620 [31] = assay: Induction of apoptosis in human SW-620 cells assessed as necrotic cells at 20 nM measured after 24 hrs by Annexin V/PI staining based flow cytometry method (reference value: 3%); assay type: functional
SW-620 [32] = assay: Antitumour activity against human SW-620 cells xenografted in Balb/c mouse assessed as increase in cleaved-caspase 3 expression in tumour at 5 mg/kg, ip measured after 21 days immunochemical staining method; assay type: functional, organism-based; conditions: time 21.0 day
SW-620 [33] = assay: Induction of apoptosis in human SW-620 cells assessed as viable cells at 20 nM measured after 24 hrs by Annexin V/PI staining based flow cytometry method (reference value: 94%); assay type: functional; conditions: read-out: Activity
LoVo [34] = assay: Cell cycle arrest in human LoVo cells assessed as accumulation of cells in G0/G1 phase at 20 to 80 nM measured after 24 hrs by PI staining based flow cytometry method; assay type: functional; conditions: dose 20-80 nM
LoVo [35] = assay: Induction of apoptosis in human LoVo cells assessed as viable cells at 80 nM measured after 24 hrs by Annexin V/PI staining based flow cytometry method (reference value: 93.5%); assay type: functional; conditions: read-out: Activity

CC1(C)[C@H]2CC[C@]1(C)N(Cc1cn(-c3cccc(Br)c3)nn1)C(=O)C2
Activity (LoVo [1]): 7.4% | IC50 (PANC-1): 90 nM | Activity (SW-620 [2]): Active | viability at 0.04 µM (LoVo [3]): 89.8% | CC50 at 24 h [4]: 9.55 µM | Activity (SW-620 [5]): 20.6% | Activity (SW-620 [6]): 5.1% | Activity (SW-620 [7]): Active | Activity (LoVo [8]): Active | Activity (SW-620 [9]): Active | Activity (LoVo [10]): Active | Activity (SW-620 [11]): 8.1% | CC50 [12]: 13.8 µM | IC50 (HepG2): 20 nM | Activity (SW-620 [13]): 3.7% | Activity (LoVo [14]): 5.4% | Activity (LoVo [15]): Active | Activity (SW-620 [16]): 15.1% | Activity (LoVo [17]): 24.9% | CC50 at 24 h [18]: 38.8 µM | Activity (LoVo [19]): 3.1% | inhibition in vivo at 5 mg/kg (SW-620 [20]): 81.6% | CC50 at 24 h [21]: 9.93 µM | Activity (SW-620 [22]): 8.5% | Activity [23]: Non-Toxic | Activity (SW-620 [24]): 1.3% | viability at 0.08 µM (SW-620 [25]): 46.4% | inhibition (LoVo [26]): Dose-Dependent Effect | Activity (SW-620 [27]): Active | Activity (SW-620 [28]): Active | viability at 0.02 µM (LoVo [29]): 91.9% | IC50 (LoVo [30]): 30 nM | Activity (SW-620 [31]): 2.5% | Activity (SW-620 [32]): Active | viability at 0.02 µM (SW-620 [33]): 83.9% | Activity (LoVo [34]): Active | viability at 0.08 µM (LoVo [35]): 61.7%
